How the values were obtained:
W&Wlis cells = test: Determination of the extracellular peroxide concentration; assay type: cell-based, canine; conditions: 48 hours; 0.5 mg/ml of linamarin and/or 5 mEU/ml of glucose oxidase; control approximately 20 μM
Procedure: The H2O2 levels (FIG. 3B) produced extracellularly in the combined therapy were further studied in the invention. To do so, the amount of H2O2 present in the culture medium of W&Wlis cells at 48 hours in a treatment with 0.5 mg/ml of linamarin, in the presence of 5 mEU/ml of glucose oxidase or in the combination of both treatments, was analyzed although positive results were also obtained using other concentrations.
The samples to be analyzed were diluted in 1 ml of 0.1 M phosphate buffer pH 7.4. Then 3.7 EU/ml of peroxidase (Sigma-Aldrich, St. Louis, USA) and 0.1 mg/ml of ortho-dianisidine (Sigma-Aldrich, St. Louis, USA) were added. The samples were incubated at room temperature for 30 minutes and absorbances at 436 nm were determined. The H2O2 concentration was obtained by interpolation of the data obtained in a standard line performed with increasing concentrations of H2O2.

GB-LP-1 cells = test: Survival by MTT of GB-LP-1 explant cells infected with adenolis; assay type: cell-based, human; conditions: 500 μg/ml linamarin; even at MOI: 1
Procedure: The behavior of the lis/lin therapy in one of the explants (GB-LP-1) was additionally analyzed. These cells were infected with adenolis (MOI: 0, 1, 12, 100 and 500) and the survival and production of cyanide after the addition of 500 μg/ml linamarin (FIGS. 6G and 6H, respectively) were studied.
10^5 cells (W&W and patient explants) were seeded in test tubes with a flat side and screw-on cap (Nunc), or 5×10^4 cells were seeded on cover slips in 24-well plates and were simultaneously infected with adenolis (Crucell) at different multiplicities of infection (MOI: 0; 0.2; 1; 10; 100 or 500). For the cells seeded in test tubes, the medium was changed after 24 hours adding 0.5 mg/ml of linamarin where appropriate. A cell viability assay was conducted with MTT at 96 hours after the addition of linamarin. 48 hours after infection the cells seeded in the cover slips were processed to perform immunofluorescence to detect linamarase.

W&Wlis tumors = test: Xenotransplant model, W&Wlis tumors in immunodeficient mice; assay type: in vivo; conditions: intratumoral
Procedure: In addition, a dose range for linamarin was evaluated in immunodeficient (nude) mice weighing 20 grams, inoculated with W&W tumor cells which stably expressed linamarase (W&Wlis). When the tumor reached an approximate size of 50 mm^3, the mice were treated with a daily dose of intratumoral linamarin at different concentrations (0.5; 0.35; 0.25 or 0.10 mg lin/g of weight of the animal).
Another approach carried out for the invention was the use of adenoviruses carrying the linamarase gene (adenolis) in W&W cell tumors induced in immunodeficient mice. 10^6 cells were subcutaneously inoculated in both flanks in mice (n=18). Part of the animals (n=8) received W&Wlis cells which already expressed linamarase, while others (n=10) were inoculated with W&W cells and only when the tumor had developed was it locally infected with adenolis. The animals inoculated with W&Wlis were treated daily with 0.25 mg lin and 0.1 EU GO/g in the largest tumor at the beginning of treatment (approximately 50 mm^3) (FIGS. 7G and 7H). The animals showing W&W tumors were treated with infection cycles with 10^9 IU of adenolis, followed by a two-day treatment with 0.25 mg lin and 0.1 EU GO/g (FIGS. 7I and 7J). The progression of the tumors was evaluated every two days.
Immunodeficient (nude strain), athymic mice weighing approximately 20 grams and 2 months old were used. They were inoculated with 1-2×10^6 cells (W&W or W&Wlis) subcutaneously in both flanks of the mice by means of an injection with a volume of 50 μl in complete PBS (supplemented with calcium and magnesium ions) with 0.1% glucose. The size of the tumors (pi π/6×height×width×length) was measured with a calibrator.
A large group of mice (n=8) were inoculated with 1-2×10^6 W&Wlis cells as previously described. When the tumors reached a mean size of 30-50 mm^3, the tumors of one flank were treated daily with 0.25 mg of linamarin and 0.1 EU of glucose oxidase/g of weight of the animal. When the untreated tumors reached a size of about 2000 mm^3 the animals were sacrificed and it was considered the end of treatment. The data was analyzed statistically by Student's t test, considering a level of significance of 5%.

CC(C)(C#N)O[C@@H]1O[C@H](CO)[C@@H](O)[C@H](O)[C@H]1O [lin, 2-hydroxy-isobutyronitrile-β-D-glucopyranoside]
extracellular H2O2 concentration in the culture medium (W&Wlis cells): did not cause significant variations
sensitivity of adenolis-infected cells to linamarin (survival) (GB-LP-1 cells): very sensitive to treatment with linamarin
therapeutic effect on tumor growth (W&Wlis tumors; 0.1 mg lin/g daily, n=4): no therapeutic effect
therapeutic effect on tumor growth (W&Wlis tumors; 0.25 mg lin/g daily, after the tenth day of treatment, p=0.05, n=6): significant reduction of the growth of the treated tumor
death of animals (W&Wlis tumors; 0.35 mg lin/g daily, fifth day of treatment): death of three of the four animals
death of animals (W&Wlis tumors; 0.5 mg lin/g daily, between the fourth and fifth day of treatment): all the animals

Reference: patent US20100028366A1, “SYNERGISTIC EFFECT BETWEEN A […] AND ANOTHER OXIDATIVE INDUCING SYSTEM FOR TREATING TUMORS” (priority 2005, published 2010)
